Experimental data from ChEMBL document CHEMBL4507265 (2021).

What was measured:
[1] = tested on: Tyrosine-protein kinase ABL1 (Homo sapiens), P00519 [F317I]; settings: Compound concentration 1000.0 nM
[2] = tested on: Tyrosine-protein kinase ABL1 (Homo sapiens), P00519 [Q252H]; settings: Compound concentration 1000.0 nM
[3] = target: Atypical kinase COQ8B, mitochondrial (Homo sapiens) (UniProt Q96D53); settings: Compound concentration 1000.0 nM
[4] = target: RAC-gamma serine/threonine-protein kinase (Homo sapiens) (UniProt Q9Y243); settings: Compound concentration 1000.0 nM
Chain of RAC-gamma serine/threonine-protein kinase (Homo sapiens) (Q9Y243 whole entry): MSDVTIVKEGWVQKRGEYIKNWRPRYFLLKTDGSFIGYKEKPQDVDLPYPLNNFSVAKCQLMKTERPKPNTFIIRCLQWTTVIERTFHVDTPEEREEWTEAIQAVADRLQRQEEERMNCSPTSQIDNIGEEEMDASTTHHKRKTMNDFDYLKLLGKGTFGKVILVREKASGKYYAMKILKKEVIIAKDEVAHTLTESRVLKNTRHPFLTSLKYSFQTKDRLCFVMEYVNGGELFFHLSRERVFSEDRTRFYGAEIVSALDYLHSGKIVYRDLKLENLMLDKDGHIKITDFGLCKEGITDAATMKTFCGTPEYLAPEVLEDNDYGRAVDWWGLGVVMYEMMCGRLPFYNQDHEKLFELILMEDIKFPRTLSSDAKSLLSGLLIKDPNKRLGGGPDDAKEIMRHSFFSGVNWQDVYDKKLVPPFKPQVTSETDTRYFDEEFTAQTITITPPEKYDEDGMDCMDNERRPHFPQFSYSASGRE

[5] = target: Mitogen-activated protein kinase kinase kinase 5 (Homo sapiens) (UniProt Q99683); settings: Compound concentration 1000.0 nM
[6] = target: Protein-tyrosine kinase 6 (Homo sapiens) (UniProt Q13882); settings: Compound concentration 1000.0 nM
Chain of Protein-tyrosine kinase 6 (Homo sapiens) (Q13882 whole entry, looked up): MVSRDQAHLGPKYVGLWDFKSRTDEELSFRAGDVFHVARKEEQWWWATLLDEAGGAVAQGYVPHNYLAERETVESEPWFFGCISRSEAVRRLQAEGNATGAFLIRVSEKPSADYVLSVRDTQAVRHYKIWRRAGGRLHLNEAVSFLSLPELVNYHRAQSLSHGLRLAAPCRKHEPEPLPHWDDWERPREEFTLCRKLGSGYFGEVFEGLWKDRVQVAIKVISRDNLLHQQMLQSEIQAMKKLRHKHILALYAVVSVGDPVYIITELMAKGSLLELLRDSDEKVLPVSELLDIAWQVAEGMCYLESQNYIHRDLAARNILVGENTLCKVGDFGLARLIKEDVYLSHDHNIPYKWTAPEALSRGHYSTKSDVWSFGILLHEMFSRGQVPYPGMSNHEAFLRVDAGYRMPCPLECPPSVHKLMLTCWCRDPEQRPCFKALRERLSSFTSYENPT

[7] = target: Serine/threonine-protein kinase BRSK1 (Homo sapiens) (UniProt Q8TDC3); settings: Compound concentration 1000.0 nM
[8] = target: Cyclin-dependent kinase 4 (Homo sapiens) (UniProt P11802); settings: Compound concentration 1000.0 nM
[9] = target: Cyclin-dependent kinase-like 5 (Homo sapiens) (UniProt O76039); settings: Compound concentration 1000.0 nM
[10] = target: Casein kinase I isoform gamma-1 (Homo sapiens) (UniProt Q9HCP0); settings: Compound concentration 1000.0 nM
Chain of Casein kinase I isoform gamma-1 (Homo sapiens) (Q9HCP0 whole entry, looked up, canonical isoform): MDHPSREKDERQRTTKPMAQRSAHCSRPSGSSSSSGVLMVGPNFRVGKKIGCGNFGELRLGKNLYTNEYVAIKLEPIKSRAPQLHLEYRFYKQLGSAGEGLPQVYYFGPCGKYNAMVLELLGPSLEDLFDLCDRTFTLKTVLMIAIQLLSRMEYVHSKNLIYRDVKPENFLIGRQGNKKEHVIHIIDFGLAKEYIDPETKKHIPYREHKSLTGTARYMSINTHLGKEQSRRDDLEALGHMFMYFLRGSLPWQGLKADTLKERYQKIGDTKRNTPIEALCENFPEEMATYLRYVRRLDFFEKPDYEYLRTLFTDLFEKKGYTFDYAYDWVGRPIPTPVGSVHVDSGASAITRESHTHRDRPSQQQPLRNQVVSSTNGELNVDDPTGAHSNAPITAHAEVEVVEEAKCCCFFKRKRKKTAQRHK

[11] = target: Serine/threonine-protein kinase DCLK3 (Homo sapiens) (UniProt Q9C098); settings: Compound concentration 1000.0 nM
[12] = target: Serine/threonine-protein kinase 17B (Homo sapiens) (UniProt O94768); settings: Compound concentration 1000.0 nM
Chain of Serine/threonine-protein kinase 17B (Homo sapiens) (O94768 whole entry): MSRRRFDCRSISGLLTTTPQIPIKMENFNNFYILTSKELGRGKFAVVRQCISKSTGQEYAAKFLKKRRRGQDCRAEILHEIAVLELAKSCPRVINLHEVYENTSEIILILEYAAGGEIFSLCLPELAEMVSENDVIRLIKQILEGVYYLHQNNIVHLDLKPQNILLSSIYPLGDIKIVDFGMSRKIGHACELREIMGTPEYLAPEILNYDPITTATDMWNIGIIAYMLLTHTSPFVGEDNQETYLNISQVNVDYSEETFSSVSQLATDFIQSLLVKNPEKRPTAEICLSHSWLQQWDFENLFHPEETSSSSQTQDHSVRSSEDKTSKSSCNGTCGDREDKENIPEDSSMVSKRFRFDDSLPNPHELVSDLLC

[13] = tested on: Receptor-type tyrosine-protein kinase FLT3 (Homo sapiens), P36888 [UNDEFINED MUTATION]; settings: Compound concentration 1000.0 nM
[14] = tested on: Mast/stem cell growth factor receptor Kit (Homo sapiens), P10721 [L576P]; settings: Compound concentration 1000.0 nM
Chain of Mast/stem cell growth factor receptor Kit (Homo sapiens), P10721 [L576P] (P10721 whole entry L576P): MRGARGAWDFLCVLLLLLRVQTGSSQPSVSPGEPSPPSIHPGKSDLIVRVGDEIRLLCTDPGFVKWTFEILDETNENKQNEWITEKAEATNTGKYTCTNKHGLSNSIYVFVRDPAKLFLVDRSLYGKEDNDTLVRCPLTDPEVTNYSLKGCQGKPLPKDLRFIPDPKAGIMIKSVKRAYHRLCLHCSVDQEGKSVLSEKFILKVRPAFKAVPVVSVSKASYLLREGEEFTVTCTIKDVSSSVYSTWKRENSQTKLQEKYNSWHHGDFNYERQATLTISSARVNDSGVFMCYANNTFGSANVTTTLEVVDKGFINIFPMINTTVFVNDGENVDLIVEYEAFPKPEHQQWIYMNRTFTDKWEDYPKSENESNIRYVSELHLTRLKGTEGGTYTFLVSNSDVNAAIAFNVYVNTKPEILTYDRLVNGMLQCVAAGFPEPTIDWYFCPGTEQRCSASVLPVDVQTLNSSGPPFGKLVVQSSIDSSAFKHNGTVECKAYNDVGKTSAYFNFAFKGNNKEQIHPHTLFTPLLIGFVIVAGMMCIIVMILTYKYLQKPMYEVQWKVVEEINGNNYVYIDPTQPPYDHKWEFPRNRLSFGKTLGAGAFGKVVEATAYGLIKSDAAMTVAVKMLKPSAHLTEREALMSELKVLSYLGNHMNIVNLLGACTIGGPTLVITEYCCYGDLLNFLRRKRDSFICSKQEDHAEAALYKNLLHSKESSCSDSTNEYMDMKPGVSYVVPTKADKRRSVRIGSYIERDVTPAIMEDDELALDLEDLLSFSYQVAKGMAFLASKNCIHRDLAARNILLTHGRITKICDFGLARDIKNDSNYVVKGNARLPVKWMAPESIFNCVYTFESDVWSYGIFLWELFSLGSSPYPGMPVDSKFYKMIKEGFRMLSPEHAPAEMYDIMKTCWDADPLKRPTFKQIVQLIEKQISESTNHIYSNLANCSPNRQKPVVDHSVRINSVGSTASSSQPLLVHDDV

[15] = target: Maternal embryonic leucine zipper kinase (Homo sapiens) (UniProt Q14680); settings: Compound concentration 1000.0 nM
[16] = target: Dual specificity mitogen-activated protein kinase kinase 7 (Homo sapiens) (UniProt O14733); settings: Compound concentration 1000.0 nM
[17] = target: Serine/threonine-protein kinase Nek2 (Homo sapiens) (UniProt P51955); settings: Compound concentration 1000.0 nM
[18] = target: Mitogen-activated protein kinase 14 (Homo sapiens) (UniProt Q16539); settings: Compound concentration 1000.0 nM
[19] = target: Cyclin-dependent kinase 16 (Homo sapiens) (UniProt Q00536); settings: Compound concentration 1000.0 nM
Chain of Cyclin-dependent kinase 16 (Homo sapiens) (Q00536 whole entry): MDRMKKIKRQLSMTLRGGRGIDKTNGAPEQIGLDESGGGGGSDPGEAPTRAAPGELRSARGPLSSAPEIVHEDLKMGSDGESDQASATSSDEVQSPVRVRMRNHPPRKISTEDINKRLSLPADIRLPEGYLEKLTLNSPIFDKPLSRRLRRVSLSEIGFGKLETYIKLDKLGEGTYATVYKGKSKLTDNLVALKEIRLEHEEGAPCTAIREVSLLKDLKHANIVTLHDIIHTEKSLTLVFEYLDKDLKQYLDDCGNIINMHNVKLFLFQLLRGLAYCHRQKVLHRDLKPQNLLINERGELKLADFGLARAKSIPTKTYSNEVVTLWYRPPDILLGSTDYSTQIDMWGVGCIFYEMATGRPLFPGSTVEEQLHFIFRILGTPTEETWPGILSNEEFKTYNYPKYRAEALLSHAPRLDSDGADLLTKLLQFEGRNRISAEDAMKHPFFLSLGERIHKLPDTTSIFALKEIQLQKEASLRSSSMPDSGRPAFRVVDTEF

[20] = target: Calcium-dependent protein kinase 1 (Plasmodium falciparum) (UniProt P62344); settings: Compound concentration 1000.0 nM
Chain of Calcium-dependent protein kinase 1 (Plasmodium falciparum) (P62344 2-524 limits assumed): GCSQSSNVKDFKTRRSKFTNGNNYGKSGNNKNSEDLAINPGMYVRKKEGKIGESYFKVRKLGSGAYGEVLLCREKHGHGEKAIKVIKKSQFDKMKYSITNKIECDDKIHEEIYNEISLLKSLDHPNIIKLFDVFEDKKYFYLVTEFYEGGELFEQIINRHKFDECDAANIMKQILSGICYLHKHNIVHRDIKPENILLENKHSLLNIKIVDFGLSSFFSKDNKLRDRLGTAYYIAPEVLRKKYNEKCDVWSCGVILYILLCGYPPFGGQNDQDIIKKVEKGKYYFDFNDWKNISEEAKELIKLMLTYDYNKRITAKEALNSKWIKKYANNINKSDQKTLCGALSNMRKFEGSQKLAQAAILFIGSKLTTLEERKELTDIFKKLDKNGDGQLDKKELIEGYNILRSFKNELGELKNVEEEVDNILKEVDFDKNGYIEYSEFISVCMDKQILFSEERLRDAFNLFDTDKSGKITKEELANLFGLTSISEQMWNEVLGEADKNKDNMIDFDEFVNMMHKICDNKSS

[21] = target: Cyclin-dependent kinase 14 (Homo sapiens) (UniProt O94921); settings: Compound concentration 1000.0 nM
[22] = tested on: Proto-oncogene tyrosine-protein kinase receptor Ret (Homo sapiens), P07949 [M918T]; settings: Compound concentration 1000.0 nM
[23] = tested on: Proto-oncogene tyrosine-protein kinase receptor Ret (Homo sapiens), P07949 [V804M]; settings: Compound concentration 1000.0 nM
[24] = target: Ribosomal protein S6 kinase alpha-4 (Homo sapiens) (UniProt O75676); settings: Compound concentration 1000.0 nM
[25] = target: Ribosomal protein S6 kinase alpha-6 (Homo sapiens) (UniProt Q9UK32); settings: Compound concentration 1000.0 nM
[26] = target: Serine/threonine-protein kinase Sgk2 (Homo sapiens) (UniProt Q9HBY8); settings: Compound concentration 1000.0 nM
[27] = target: Serine/threonine-protein kinase SIK2 (Homo sapiens) (UniProt Q9H0K1); settings: Compound concentration 1000.0 nM
[28] = target: Serine/threonine-protein kinase 16 (Homo sapiens) (UniProt O75716); settings: Compound concentration 1000.0 nM
Chain of Serine/threonine-protein kinase 16 (Homo sapiens) (O75716 whole entry): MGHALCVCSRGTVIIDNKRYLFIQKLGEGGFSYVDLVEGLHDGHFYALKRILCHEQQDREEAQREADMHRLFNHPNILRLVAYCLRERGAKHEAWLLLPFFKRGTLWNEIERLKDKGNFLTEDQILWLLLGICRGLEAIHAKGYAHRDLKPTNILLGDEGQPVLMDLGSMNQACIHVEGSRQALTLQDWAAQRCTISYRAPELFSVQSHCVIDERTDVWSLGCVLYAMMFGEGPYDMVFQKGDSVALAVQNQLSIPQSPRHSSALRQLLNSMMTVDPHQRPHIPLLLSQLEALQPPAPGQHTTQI

[29] = target: Tyrosine-protein kinase SYK (Homo sapiens) (UniProt P43405); settings: Compound concentration 1000.0 nM
[30] = target: Tyrosine-protein kinase Tec (Homo sapiens) (UniProt P42680); settings: Compound concentration 1000.0 nM
[31] = target: Serine/threonine-protein kinase tousled-like 1 (Homo sapiens) (UniProt Q9UKI8); settings: Compound concentration 1000.0 nM
[32] = target: Serine/threonine-protein kinase tousled-like 2 (Homo sapiens) (UniProt Q86UE8); settings: Compound concentration 1000.0 nM
[33] = target: Testis-specific serine/threonine-protein kinase 3 (Homo sapiens) (UniProt Q96PN8); settings: Compound concentration 1000.0 nM
[34] = target: Phosphatidylinositol 3-kinase catalytic subunit type 3 (Homo sapiens) (UniProt Q8NEB9); settings: Compound concentration 1000.0 nM
[35] = target: Serine/threonine-protein kinase WNK3 (Homo sapiens) (UniProt Q9BYP7); settings: Compound concentration 1000.0 nM
[36] = target: Serine/threonine-protein kinase 32B (Homo sapiens) (UniProt Q9NY57); settings: Compound concentration 1000.0 nM
[37] = target: Serine/threonine-protein kinase 25 (Homo sapiens) (UniProt O00506); settings: Compound concentration 1000.0 nM
Chain of Serine/threonine-protein kinase 25 (Homo sapiens) (O00506 whole entry, looked up): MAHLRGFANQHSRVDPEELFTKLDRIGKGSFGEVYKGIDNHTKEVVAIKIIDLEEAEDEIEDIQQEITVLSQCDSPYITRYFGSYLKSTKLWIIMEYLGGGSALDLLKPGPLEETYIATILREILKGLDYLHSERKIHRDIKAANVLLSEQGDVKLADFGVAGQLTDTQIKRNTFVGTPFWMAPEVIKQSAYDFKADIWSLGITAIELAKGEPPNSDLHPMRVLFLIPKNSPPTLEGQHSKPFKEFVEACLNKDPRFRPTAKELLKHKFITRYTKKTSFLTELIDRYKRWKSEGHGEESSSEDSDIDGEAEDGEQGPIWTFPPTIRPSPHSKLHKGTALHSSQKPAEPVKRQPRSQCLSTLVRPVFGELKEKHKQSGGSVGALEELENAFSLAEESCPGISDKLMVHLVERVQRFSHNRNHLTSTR

[38] = target: D(3) dopamine receptor (Homo sapiens) (UniProt P35462); settings: Compound concentration 10.0 uM
Chain of D(3) dopamine receptor (Homo sapiens) (P35462 whole entry): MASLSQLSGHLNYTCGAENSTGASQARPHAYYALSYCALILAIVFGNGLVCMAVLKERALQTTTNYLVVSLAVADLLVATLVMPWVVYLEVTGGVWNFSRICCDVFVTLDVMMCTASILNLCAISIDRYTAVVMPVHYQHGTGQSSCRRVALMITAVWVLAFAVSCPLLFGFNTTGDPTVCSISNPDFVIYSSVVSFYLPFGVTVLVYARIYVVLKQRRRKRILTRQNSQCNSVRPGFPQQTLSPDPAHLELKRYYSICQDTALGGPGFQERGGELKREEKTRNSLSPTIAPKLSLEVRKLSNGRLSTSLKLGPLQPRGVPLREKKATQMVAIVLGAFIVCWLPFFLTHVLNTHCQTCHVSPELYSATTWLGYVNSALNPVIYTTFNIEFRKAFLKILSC

[39] = target: T1, Alpha-1A adrenergic receptor (Homo sapiens) (UniProt P35348); settings: Compound concentration 10.0 uM
T1 sequence (whole entry): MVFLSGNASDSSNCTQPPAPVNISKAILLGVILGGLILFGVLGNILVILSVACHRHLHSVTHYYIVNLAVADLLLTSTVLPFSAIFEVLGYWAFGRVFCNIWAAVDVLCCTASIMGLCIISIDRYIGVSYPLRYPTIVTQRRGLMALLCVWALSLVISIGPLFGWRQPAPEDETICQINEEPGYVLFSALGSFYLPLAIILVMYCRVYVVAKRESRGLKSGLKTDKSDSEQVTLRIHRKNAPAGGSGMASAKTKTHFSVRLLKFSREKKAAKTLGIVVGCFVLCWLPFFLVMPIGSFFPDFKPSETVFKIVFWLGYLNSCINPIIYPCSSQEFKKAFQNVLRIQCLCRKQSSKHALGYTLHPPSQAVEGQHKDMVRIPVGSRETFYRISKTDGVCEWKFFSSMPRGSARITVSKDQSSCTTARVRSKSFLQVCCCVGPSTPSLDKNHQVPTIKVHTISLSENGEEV

NS(=O)(=O)c1cc(NC(=O)C2(c3ccccc3Cl)CC2)ccc1Oc1cccc(Cl)c1 [BAY-207]
inactive: residual activity [1] 96% | residual activity [2] 71% | residual activity [3] 63% | residual activity [4] 79% | residual activity [5] 88% | residual activity [6] 99% | residual activity [7] 82% | residual activity [8] 95% | residual activity [9] 95% | residual activity [10] 90% | residual activity [11] 56% | residual activity [12] 97% | residual activity [13] 100% | residual activity [14] 89% | residual activity [15] 96% | residual activity [16] 100% | residual activity [17] 86% | residual activity [18] 100% | residual activity [19] 100% | residual activity [20] 89% | residual activity [21] 63% | residual activity [22] 71% | residual activity [23] 100% | residual activity [24] 70% | residual activity [25] 96% | residual activity [26] 100% | residual activity [27] 100% | residual activity [28] 100% | residual activity [29] 70% | residual activity [30] 81% | residual activity [31] 99% | residual activity [32] 100% | residual activity [33] 100% | residual activity [34] 89% | residual activity [35] 78% | residual activity [36] 91% | residual activity [37] 100% | inhibition [38] 10.5% | inhibition [39] 15.1%

NS(=O)(=O)c1cc(NC(=O)Cc2ccccc2)ccc1Oc1cccc(Cl)c1 [BAY-1797]
inactive: residual activity [1] 51% | residual activity [2] 55% | residual activity [3] 100% | residual activity [4] 100% | residual activity [5] 100% | residual activity [6] 96% | residual activity [7] 91% | residual activity [8] 74% | residual activity [9] 83% | residual activity [10] 89% | residual activity [11] 92% | residual activity [12] 100% | residual activity [13] 97% | residual activity [14] 78% | residual activity [15] 59% | residual activity [16] 91% | residual activity [17] 89% | residual activity [18] 100% | residual activity [19] 92% | residual activity [20] 91% | residual activity [21] 95% | residual activity [22] 83% | residual activity [23] 100% | residual activity [24] 100% | residual activity [25] 59% | residual activity [26] 85% | residual activity [27] 100% | residual activity [28] 95% | residual activity [29] 66% | residual activity [30] 96% | residual activity [31] 99% | residual activity [32] 100% | residual activity [33] 87% | residual activity [34] 100% | residual activity [35] 78% | residual activity [36] 100% | residual activity [37] 88% | inhibition [38] 0.87% | inhibition [39] 5.04%
